In patent US11198695B2, “Fused ring derivative having MGAT-2 inhibitory activity” (Shionogi & Co., Ltd., priority 2017, dated 2021):

Target: recombinant human MGAT2 (Homo sapiens (Human), UniProt Q3SYC2)
Assay: Measurement of human MGAT2 inhibitory activity
Type: biochemical
Settings: read-out: IC50 (concentration exhibiting 50% enzyme inhibition), Table 52
Procedure: A full-length human MGAT2 gene to which a Flag-tag had been added at the N-terminal was inserted into pFastBac (from Invitrogen). A recombinant baculovirus was produced in accordance with the protocol for a Bac-to-Bac baculovirus expression system (produced by Invitrogen), and Sf-9 cells were infected therewith. The cells were collected and sonicated, and then the membrane fraction was collected through centrifugation. Western blotting analysis with an anti-Flag antibody was performed for the membrane fraction to confirm expression, and the membrane fraction was used as a recombinant human MGAT2 enzyme solution.
Solutions of the compounds of the present invention in DMSO were each aliquoted into 0.2-μL portions in a 384-well polystyrene microplate produced by Corning Incorporated, and 5 μL of an enzyme solution prepared with an assay buffer (100 mmol/L phosphate buffer (pH 7.4) containing 2 mmol/L DTT) and 5 μL of a substrate solution (100 mmol/L phosphate buffer (pH 7.4), 30 μmol/L 2-Oleoylglycerol, 10 μmol/L Oleoyl-CoA) were added thereto, and the resultant was stirred and centrifuged, and incubated in a moist chamber at room temperature for 1 hour. After enzymatic reaction, 50 μL of a quenching solution (containing 0.2 μmol/L Diolein-d5, 0.4% formic acid, and 50% isopropanol) containing Internal Standard (IS) was added to terminate the reaction, and the resultant was sealed in a plate produced by Shimadzu GLC Ltd., and then stirred and centrifuged, and measurement was performed by using an electrospray ionization method with a RapidFire360 and Agilent 6550 Q-TOF mass spectrometer. Diolein as a reaction product (P) of 2-Oleoylglycerol as the substrate and an ammonium adduct ion of the IS were detected, and the peak intensity ratio, P/IS, was calculated from the peak heights to evaluate the inhibitory activity. Inhibitory activities with/without addition of enzyme were defined as Control (+)/Control (−), respectively, and the respective % inhibitions were defined as 0% inhibition and 100% inhibition. The inhibitory activity was calculated from formula below with TIBCO Spotfire (produced by TIBCO Software Inc.): Inhibitory activity (%)=[1−{Sample−Control(−)}/{Control(+)−Control(−)}]*100 where Sample indicates a peak intensity ratio: P/IS, when the compound of the present invention was added.

Sequence of recombinant human MGAT2 (Q3SYC2 whole entry): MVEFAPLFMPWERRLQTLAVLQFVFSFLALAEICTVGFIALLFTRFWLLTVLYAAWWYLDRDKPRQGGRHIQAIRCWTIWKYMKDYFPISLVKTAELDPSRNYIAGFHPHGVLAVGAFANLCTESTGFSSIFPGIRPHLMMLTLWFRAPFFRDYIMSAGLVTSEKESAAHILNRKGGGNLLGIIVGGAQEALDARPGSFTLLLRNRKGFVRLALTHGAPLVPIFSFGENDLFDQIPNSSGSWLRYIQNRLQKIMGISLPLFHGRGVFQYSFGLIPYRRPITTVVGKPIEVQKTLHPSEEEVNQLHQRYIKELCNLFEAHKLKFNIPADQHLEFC

Going from O=C1N[C@@]2(CCc3cc(OCC(F)(F)F)ccc32)Cc2nn(CCC3CC3)c(C(=O)NCC3(O)CCC3)c21 [Compound I-90] to CC1(S(=O)(=O)NC(=O)c2c3c(nn2CCC2CC2)C[C@]2(CCc4cc(OCC(F)(F)F)ccc42)NC3=O)CC1 [Compound I-110], the IC50 falls from 33 nM to 10 nM (3.3-fold).

Going from CS(=O)(=O)CC(=O)Nc1c2c(nn1-c1ccc(Br)cn1)C[C@]1(CCc3cc(OCC(F)(F)F)ccc31)NC2=O [Compound I-91] to CS(=O)(=O)CC(=O)Nc1c2c(nn1-c1ccccn1)C[C@]1(CCc3cc(OCC(F)(F)F)ccc31)NC2=O [Compound I-101], the IC50 rises from 1.2 nM to 17 nM (14-fold). The first is the more potent here.

Going from Cc1cc(C(=O)Nc2c3c(nn2CCC2CC2)C[C@]2(CCc4cc(OCC(F)(F)F)ccc42)NC3=O)on1 [Compound I-92] to CCS(=O)(=O)NC(=O)c1c2c(nn1CCC1CC1)C[C@]1(CCc3cc(OCC(F)(F)F)ccc31)NC2=O [Compound I-120], the IC50 falls from 73 nM to 46 nM (1.6-fold). The second is the more potent here.

Going from CS(=O)(=O)CC(=O)Nc1c2c(nn1CCC1CC1)C[C@]1(CCc3cc(C#N)ccc31)NC2=O [Compound I-93] to CS(=O)(=O)CC(=O)Nc1c2c(nn1CCC1CC1)C[C@]1(CCc3cc(NCC(F)(F)F)ccc31)NC2=O [Compound I-102], the IC50 falls from 160 nM to 25 nM (6.4-fold).

CS(=O)(=O)CC(=O)Nc1c2c(nn1CCC1CC1)C[C@]1(CCc3cc(OCC(F)(F)F)cc(F)c31)NC2=O [Compound I-94] and CS(=O)(=O)CC(=O)Nc1c2c(nn1CCCC(F)(F)F)C[C@@]1(CCc3cc(OCC(F)(F)F)cc(F)c31)NC2=O [Compound I-136] are within 1.5-fold of each other in IC50: 3.7 nM for the first, 4.1 nM for the second.

First: CS(=O)(=O)CC(=O)Nc1c2c(nn1-c1ccc(C(F)(F)F)cc1)C[C@]1(CCc3cc(OCC(F)(F)F)ccc31)NC2=O [Compound I-95]
Second: CS(=O)(=O)CC(=O)Nc1c2c(nn1-c1cccc(C(F)(F)F)c1)C[C@]1(CCc3cc(OCC(F)(F)F)ccc31)NC2=O [Compound I-125]
The IC50 of the first is 100-fold lower: 5.1 nM for the first, 525 nM for the second.

Going from CS(=O)(=O)CC(=O)Nc1c2c(nn1C1CCCCC1)C[C@]1(CCc3cc(OCC(F)(F)F)ccc31)NC2=O [Compound I-96] to CS(=O)(=O)CC(=O)Nc1c2c(nn1-c1ccccn1)C[C@@]1(CCc3cc(OCC(F)(F)F)ccc31)NC2=O [Compound I-104], the IC50 falls from 54 nM to 12 nM (4.5-fold). The second is the more potent here.

Cc1ccc(-n2nc3c(c2NC(=O)CS(C)(=O)=O)C(=O)N[C@@]2(CCc4cc(OCC(F)(F)F)ccc42)C3)cc1 [Compound I-97] and CS(=O)(=O)CC(=O)Nc1c2c(nn1-c1ccc(F)cc1)C[C@]1(CCc3cc(OCC(F)(F)F)ccc31)NC2=O [Compound I-99] are within 1.5-fold of each other in IC50: 6.9 nM for the first, 6.2 nM for the second.

Going from Cc1cccc(-n2nc3c(c2NC(=O)CS(C)(=O)=O)C(=O)N[C@@]2(CCc4cc(OCC(F)(F)F)ccc42)C3)c1 [Compound I-98] to CS(=O)(=O)CC(=O)Nc1c2c(nn1-c1cccc(F)c1)C[C@]1(CCc3cc(OCC(F)(F)F)ccc31)NC2=O [Compound I-123], the IC50 rises from 8.5 nM to 55.5 nM (6.5-fold).

Compared with COc1ccc(-n2nc3c(c2NC(=O)CS(C)(=O)=O)C(=O)N[C@@]2(CCc4cc(OCC(F)(F)F)ccc42)C3)cc1 [Compound I-100], CS(=O)(=O)CC(=O)Nc1c2c(nn1-c1ccc(C#N)cc1)C[C@]1(CCc3cc(OCC(F)(F)F)ccc31)NC2=O [Compound I-133] is 2.3-fold lower in IC50: 32 nM for the first, 14 nM for the second.

First: CS(=O)(=O)CC(=O)Nc1c2c(nn1-c1ccccn1)C[C@](c1ccc(OCC(F)(F)F)cc1)(C(F)(F)F)NC2=O [Compound I-103]
Second: CS(=O)(=O)CC(=O)Nc1c2c(nn1-c1ccccn1)C[C@]1(CCOc3cc(OCC(F)(F)F)ccc31)NC2=O [Compound I-105]
The IC50 of the first is 47-fold higher: 320 nM for the first, 6.8 nM for the second.

Compared with CS(=O)(=O)CC(=O)Nc1c2c(nn1-c1ccc(C3CC3)cc1)C[C@]1(CCc3cc(OCCCC(F)(F)F)ccc31)NC2=O [Compound I-106], CCc1ccc(-n2nc3c(c2NC(=O)CS(C)(=O)=O)C(=O)N[C@@]2(CCc4cc(OCCCC(F)(F)F)ccc42)C3)cc1 [Compound I-139] is 2.7-fold lower in IC50: 11 nM for the first, 4.1 nM for the second. The second is the more potent here.

Compared with O=C1N[C@@]2(CCc3cc(OCC(F)(F)F)cc(F)c32)Cc2nn(-c3ccccn3)c(-c3nnn[nH]3)c21 [Compound I-107], CS(=O)(=O)CC(=O)Nc1c2c(nn1-c1ccc(C#N)cn1)C[C@@]1(CCc3cc(OCC(F)(F)F)cc(F)c31)NC2=O [Compound I-137] is 450-fold lower in IC50: 760 nM for the first, 1.7 nM for the second. The second is the more potent here.

Compared with O=C1N[C@@]2(CCc3cc(OCC(F)(F)F)ccc32)Cc2nn(CCC3CC3)c(C(=O)NS(=O)(=O)C(F)(F)F)c21 [Compound I-108], CC(C)(C)S(=O)(=O)NC(=O)c1c2c(nn1CCC1CC1)C[C@]1(CCc3cc(OCC(F)(F)F)ccc31)NC2=O [Compound I-118] is 130-fold higher in IC50: 2.9 nM for the first, 370 nM for the second. The first is the more potent here.

Going from O=C1N[C@@]2(CCc3cc(OCC(F)(F)F)ccc32)Cc2nn(CCC3CC3)c(C(=O)NS(=O)(=O)C(F)F)c21 [Compound I-109] to CC(C)S(=O)(=O)NC(=O)c1c2c(nn1CCC1CC1)C[C@]1(CCc3cc(OCC(F)(F)F)ccc31)NC2=O [Compound I-117], the IC50 rises from 6.1 nM to 51 nM (8.4-fold).

O=C1N[C@@]2(CCc3cc(OCC(F)(F)F)ccc32)Cc2nn(CCC3CC3)c(C(=O)NS(=O)(=O)c3ccccc3)c21 [Compound I-111] and O=C1N[C@@]2(CCc3cc(OCC(F)(F)F)ccc32)Cc2nn(CCC3CC3)c(C(=O)NS(=O)(=O)Cc3ccccc3)c21 [Compound I-119] are within 1.5-fold of each other in IC50: 190 nM for the first, 150 nM for the second.

Compared with COCCS(=O)(=O)NC(=O)c1c2c(nn1CCC1CC1)C[C@]1(CCc3cc(OCC(F)(F)F)ccc31)NC2=O [Compound I-112], COCCCS(=O)(=O)NC(=O)c1c2c(nn1CCC1CC1)C[C@]1(CCc3cc(OCC(F)(F)F)ccc31)NC2=O [Compound I-114] is 2.5-fold higher in IC50: 44.5 nM for the first, 110 nM for the second. The first is the more potent here.

First: O=C1N[C@@]2(CCc3cc(OCC(F)(F)F)ccc32)Cc2nn(CCC3CC3)c(C(=O)NS(=O)(=O)C3CCCC3)c21 [Compound I-113]
Second: O=C1N[C@@]2(CCc3cc(OCC(F)(F)F)ccc32)Cc2nn(CCC3CC3)c(C(=O)NS(=O)(=O)C3CCC3)c21 [Compound I-121]
The IC50 of the first is 17-fold higher: 810 nM for the first, 47 nM for the second.

First: CCOCCS(=O)(=O)NC(=O)c1c2c(nn1CCC1CC1)C[C@]1(CCc3cc(OCC(F)(F)F)ccc31)NC2=O [Compound I-115]
Second: O=C1N[C@@]2(CCc3cc(OCC(F)(F)F)ccc32)Cc2nn(CCC3CC3)c(C(=O)NS(=O)(=O)CC3CC3)c21 [Compound I-116]
The IC50 of the first is 4.1-fold lower: 64 nM for the first, 260 nM for the second.

Compared with CS(=O)(=O)CC(=O)Nc1c2c(nn1-c1ccc(C#N)cn1)C[C@@]1(CCc3cc(N4CC(C(F)(F)F)C4)ccc31)NC2=O [Compound I-122], Cc1cccc(-n2nc3c(c2NC(=O)CS(C)(=O)=O)C(=O)N[C@@]2(CCc4cc(OCC(F)(F)F)ccc42)C3)n1 [Compound I-134] is 190-fold higher in IC50: 1.8 nM for the first, 340 nM for the second. The first is the more potent here.

Going from CS(=O)(=O)CC(=O)Nc1c2c(nn1-c1cccc(Cl)c1)C[C@]1(CCc3cc(OCC(F)(F)F)ccc31)NC2=O [Compound I-124] to CS(=O)(=O)CC(=O)Nc1c2c(nn1-c1cc(Cl)cc(Cl)c1)C[C@]1(CCc3cc(OCC(F)(F)F)ccc31)NC2=O [Compound I-128], the IC50 rises from 22 nM to 40.5 nM (1.8-fold).

Compared with CS(=O)(=O)CC(=O)Nc1c2c(nn1-c1cccc(OC(F)(F)F)c1)C[C@]1(CCc3cc(OCC(F)(F)F)ccc31)NC2=O [Compound I-126], CS(=O)(=O)CC(=O)Nc1c2c(nn1-c1ccc(F)c(F)c1)C[C@]1(CCc3cc(OCC(F)(F)F)ccc31)NC2=O [Compound I-131] is 140-fold lower in IC50: 710 nM for the first, 5.2 nM for the second. The second is the more potent here.

Compared with CS(=O)(=O)CC(=O)Nc1c2c(nn1-c1cc(F)cc(F)c1)C[C@]1(CCc3cc(OCC(F)(F)F)ccc31)NC2=O [Compound I-127], Cc1cc(C)cc(-n2nc3c(c2NC(=O)CS(C)(=O)=O)C(=O)N[C@@]2(CCc4cc(OCC(F)(F)F)ccc42)C3)c1 [Compound I-129] is 4-fold lower in IC50: 105 nM for the first, 26.5 nM for the second. The second is the more potent here.

Going from CS(=O)(=O)CC(=O)Nc1c2c(nn1-c1cc(C(F)(F)F)cc(C(F)(F)F)c1)C[C@]1(CCc3cc(OCC(F)(F)F)ccc31)NC2=O [Compound I-130] to Cc1ccc(-n2nc3c(c2NC(=O)CS(C)(=O)=O)C(=O)N[C@@]2(CCc4cc(OCC(F)(F)F)ccc42)C3)cc1C [Compound I-132], the IC50 falls from 505 nM to 9.65 nM (52-fold). The second is the more potent here.

First: Cc1ccnc(-n2nc3c(c2NC(=O)CS(C)(=O)=O)C(=O)N[C@@]2(CCc4cc(OCC(F)(F)F)ccc42)C3)c1 [Compound I-135]
Second: CS(=O)(=O)NCc1c2c(nn1CCC1CC1)C[C@]1(CCc3cc(OCC(F)(F)F)ccc31)NC2=O [Compound I-138]
The IC50 of the first is 180-fold lower: 3.1 nM for the first, 550 nM for the second. The first is the more potent here.

First: O=C1N[C@@]2(CCc3cc(OCC(F)(F)F)ccc32)Cc2nn(CCC3CC3)c(CNS(=O)(=O)C3CCCC3)c21 [Compound I-140]
Second: O=C1N[C@@]2(CCc3cc(OCC(F)(F)F)ccc32)Cc2nn(CCC3CC3)c(CNS(=O)(=O)C3CCOCC3)c21 [Compound I-142]
The IC50 of the first is 2.7-fold higher: 730 nM for the first, 270 nM for the second. The second is the more potent here.

Work on CC(C)S(=O)(=O)NCc1c2c(nn1CCC1CC1)C[C@]1(CCc3cc(OCC(F)(F)F)ccc31)NC2=O [Compound I-141] yielded an IC50 of 430 nM.
